Reference: US6299910A, “Methods for identification, purification, and manufacturing of the active constituent in Salvia-miltiorrhiza (dansheng) and the application of this product in enhancing cardiovascular functions” (Techical Sourcing International, Inc., priority 2000, dated 2001)

Columns and labels:
[1] = test system: Red blood cell lysis by H2O2; test: Effect of Dansheng components on red blood cell lysis by H2O2 (Table IV); type: cell-based; parameters: key to Effect (red blood cell lysis by H2O2): -: not effective; +: effective; ++: very effective; conditions: 0.33 mg/ml; for inhibition at 330 µg/mL: Erythrocyte, read-out: Degree of Inhibition (red blood cell lysis by H2O2)
Description: These compounds were prepared at 0.33 mg/ml.

Platelet aggregation [2] = test: Effect of Dansheng components on platelet anti-aggregation, in vitro (Table VI); type: cell-based; parameters: key to Effect (platelet anti-aggregation): -: not effective; +: effective; ++: very effective; conditions: for platelet anti-aggregation potency, in words: Tables II and VI
rats [3] = test: Effect of Dansheng components on rats under hypoxia condition (Table V); type: in vivo; parameters: key to Effect (rats under hypoxia condition): -: not effective; +: effective; ++: very effective; conditions: 100 mg/kg dose
animal = conditions: Chen et al., 1980; cited from earlier work
[4] = Overall bioactivity in three categories: platelet anti-aggregation, life extension under hypoxia, anti-oxidation; conditions: anti-oxidation (liver cell protection)
Description: (§1) The other seven compounds are evaluated based on: [1] Their anti-oxidant activity, [2] Anti-platelet aggregation, and [3] Endurance under hypoxia conditions.

rats [5] = test: Life extension / endurance under hypoxia condition (Table III); type: in vivo; conditions: for extended rats life (up to): hypoxia, dose not given
Description: as §1
Compounds 6 and 8 effectively extended rats life up to 78% Other compounds are comparatively lower in this category (see Tables III and V below).

Liver cell = test: Effect on liver cell MDA amount induced by carbon tetrachloride (antioxidant activity, liver cell protection; Table I); type: cell-based; conditions: 0.5 micro mole/ml
Description: Table I: Effect of Dansheng Constituents on Liver Cell MDA (Molonyldialdehyde) Amount Induced by Carbon Tetrachloride

Platelet aggregation [6] = test: Platelet anti-aggregation effect of Magnesium Salvianolate B and its derivatives, in vitro (Table II); type: cell-based; conditions: 900 mcg/ml

Compound	Effect (red blood cell lysis by H2O2) [1]	inhibition at 330 µg/mL [1]	inhibition at 180 µg/mL (Platelet aggregation [2]; Platelet, 180 mcg/ml, in vitro)	Effect (rats under hypoxia condition) (rats [3])	Life Expanded (rats [3])	animal endurance capacity under hypoxia conditions, in words (animal)	% Inhibition (platelet anti-aggregation) (Platelet aggregation [2]; 900 mcg/ml, in vitro)	also measured
O=C(/C=C/c1ccc(O)c2c1C(C(=O)O)C(c1ccc(O)c(O)c1)O2)OC(Cc1ccc(O)c(O)c1)C(=O)O (stereo not shown) [Compound 3, Dipotassium Lithospermate]	++	100%	0%	+	23%	–	–	inhibition at 900 µg/mL (Platelet aggregation [2]; Platelet, 900 mcg/ml, in vitro): 18%
O=C(/C=C/c1ccc(O)c(O)c1)O[C@H](Cc1ccc(O)c(O)c1)C(=O)O [Compound 2, Sodium Rosmarinate]	++	100%	0%	++	42%	–	–	inhibition at 900 µg/mL (Platelet aggregation [2]; Platelet, 900 mcg/ml, in vitro): 13%
O=Cc1ccc(O)c(O)c1 [Protocatechualdehydes, Protocatechualdehyde]	–	–	–	–	–	increase animal endurance capacity under hypoxia conditions	–	–
O=C(/C=C/c1ccc(O)c2c1[C@H](C(=O)O[C@H](Cc1ccc(O)c(O)c1)C(=O)O)[C@@H](c1ccc(O)c(O)c1)O2)O[C@H](Cc1ccc(O)c(O)c1)C(=O)O [Salvianolic Acid B]	–	–	–	–	–	increase animal endurance capacity under hypoxia conditions	–	–
O=C(/C=C/c1ccc(O)c(O)c1/C=C/c1ccc(O)c(O)c1)OC(Cc1ccc(O)c(O)c1)C(=O)O (stereo not shown) [Salvianolic Acid A]	–	–	–	–	–	increase animal endurance capacity under hypoxia conditions	–	–
O=C(/C=C/c1ccc(O)c2c1C(C(=O)OC(Cc1ccc(O)c(O)c1)C(=O)O)C(c1ccc(O)c(O)c1)O2)OC(Cc1ccc(O)c(O)c1)C(=O)O (stereo not shown) [Compound 5, Dipotassium Salvianolate B]	++	100%	0%	–	–	–	44%	Effect (platelet anti-aggregation) (Platelet aggregation [2]; 900 mcg/ml, in vitro): +
O=C(O)C(O)Cc1ccc(O)c(O)c1 (stereo not shown) [Compound 1, Potassium 3' 4-dihydroxyphenyllactate]	++	100%	0%	–	–	–	–	inhibition at 900 µg/mL (Platelet aggregation [2]; Platelet, 900 mcg/ml, in vitro): 0%; bioactivity level, in words [4]: lowest bio-activity level
Magnesium Isosalvianolate B [Compound 8]	++	–	–	++	69%	–	20%	extended rats life (up to) (rats [5]): up to 78%; Degree of Inhibition (red blood cell lysis by H2O2) [1]: 100%; % Inhibition (platelet anti-aggregation) (Platelet aggregation [2]; 180 mcg/ml, in vitro): 0%
O=C(/C=C/c1ccc(O)c2c1C(C(=O)O)C(c1ccc(O)c(O)c1)O2)OC(Cc1ccc(O)c(O)c1)C(=O)O (stereo not shown) [Compound 4, Magnesium Lithospermate]	++	–	–	+	45%	–	28%	Degree of Inhibition (red blood cell lysis by H2O2) [1]: 100%; % Inhibition (platelet anti-aggregation) (Platelet aggregation [2]; 180 mcg/ml, in vitro): 0%
O=C(/C=C/c1ccc(O)c2c1C(C(=O)OC(Cc1ccc(O)c(O)c1)C(=O)O)C(c1ccc(O)c(O)c1)O2)OC(Cc1ccc(O)c(O)c1)C(=O)O (stereo not shown) [Compound 6, Magnesium Salvianolate B]	++	–	–	++	65%	–	74%	% Life Extension (rats [5]; hypoxia condition, 200 mg/kg dose): 78%; extended rats life (up to) (rats [5]): up to 78%; Degree of Inhibition (red blood cell lysis by H2O2) [1]: 100%; % Inhibition (platelet anti-aggregation) (Platelet aggregation [2]; 180 mcg/ml, in vitro): 0%; Effect (platelet anti-aggregation) (Platelet aggregation [2]; 900 mcg/ml, in vitro): +; inhibition at 450 µg/mL (Platelet aggregation [2]; Platelet, 450 mcg/ml, in vitro): 15%; platelet anti-aggregation potency, in words (Platelet aggregation [2]): highest potency; platelet anti-aggregation potency, in words (Platelet aggregation [2]; listed as MSV): most potent; secretion of MDA from liver cell, in words (Liver cell): decreases the secretion of MDA from liver cell; inhibition at 900 µg/mL (Platelet aggregation [6]): 94%; bioactivity level, in words [4]: highest bioactivity level; bioactivity level, in words ([4]; listed as Magnesium Salvianolate B): most biologically effective compound
O=C(O)C(O)Cc1ccc(O)c(O)c1 (stereo not shown) [Danshensu, 3',4 phenyllatic Acid]	–	–	–	–	–	increase animal endurance capacity under hypoxia conditions	–	–
